Results: patent US9421204B2, “Oligomer modified diaromatic substituted compounds” (priority 2010, dated 2016)
Read-outs that look alike come from different tables or passages of the source.

How the values were obtained:
Wild Type RT = Wild Type RT (Human immunodeficiency virus type 1 group M subtype B, UniProt P04585); assay: HIV-1 Reverse Transcriptase Inhibition Assay; type: biochemical
Procedure: The following materials were removed from the freezer and were stored on wet ice (dGTP, ^32P, purified enzyme extract, rCdG, dGTP, DNA). Test compounds were evaluated at a high test of 100 μM diluted in dH2O and if the stock solution was turbid, 1:1000 Triton-X was added to the stock solution. Thirty microliters (30 μL) of each dilution was then transferred in duplicate to the appropriate well of a 96-well plate. The positive and negative control wells each received 30 μL of dH2O instead of the compound. A 2× buffer was prepared in the following manner: 125 μL 2M Tris pH 8.0, 250 μL 3M KCl, 80 μL 1 M MgC12, 10 μL 2 M DTT, 40 μL 25 U/mL rCdG, 100 μL 1 mM dGTP, 10 μL 800 Ci/mMol alpha ^32P:dG TP, and 4.4 mL dH2O. Fifty microliters (50 μL) of 2× buffer was added to every well of the plate. BSA was diluted 1:100 and Triton-X 1:1000 in dH2O and the enzyme was added to the mixture at a 1:400 dilution. Twenty microliters (20 μL) of the enzyme solution was added to all of the wells of the plate except the negative control wells. Distilled water was used instead of enzyme in these wells. The plate was incubated at 37° C. for 30 minutes. Following incubation, 10 μL of 10 mg/mL DNA (MB-grade fish sperm) was added to each well, followed by 150 μL of cold 10% TCA in each well. The plate was incubated at room temperature for approximately 15 minutes in order to allow for precipitation of the samples. Following the incubation the contents were transferred to the appropriate filter plate. The plate was placed on the vacuum manifold and pushed firmly to induce suction. Wells were rinsed with 200 μL of cold TCA. Again, the plate was pushed down firmly and vacuum suction was applied. Once all of the liquid was aspirated from the filter plate, it was removed from the manifold and residual liquid was blotted from the bottom of the plastic base. The filtered wells were separated from the plastic base and the wells were blotted on clean, absorbent paper. The filtered wells were pushed into the cassette and a sheet of Millipore multiscreen tape was placed on the bottom of a Wallace Microbeta cassette covering all of the holes. Twenty microliters (20 μL) of Wallace Supermix Scintillant was added to each well and the top of the wells were covered with a sheet of the multiscreen tape. The plate was read on the Wallace MicroBeta counter to measure incorporated ^32P.

[1] = Log P determination (Sirius GLpKa); type: physicochemical; settings: Partition Log P, 25° C.; for logP: read-out: Log P
Procedure: The Sirius GLpKa instrument is used to determine the pKa and Log P. A blank standardization has to be completed first and passed in order to conduct the compound experiments. The solutions used by the instrument for the blank titration include water, a pH solution, and a surfactant (TRITON X-100). The TRITON X-100 was purchased commercially from Sirus. The 0.5% solution of TRITON X-100 was used in the experiment. In a 1 L volumetric flask 5 mls of TRITON X-100 is added and MILLI Q water to volume. The vessels used by the instrument were filled to ⅓ of their volume with each solution. Therefore the assay tray contains one vessel for water, pH solution, and surfactant for the blank run. The temperature of the water bath for the instrument is 25° C. The blank is calculated as an average of three “good” experiments. The “good” was denoted by a green check mark next to the assay number in the computer software. Once the blank was run successfully the instrument was ready to conduct the experiments. An additional method has to be set up for the Log P determinations for each compound. The conjugates are weighed into vessels in the same manner as for the previous experiment, i.e., 10% of the molecular weight. The vessels are placed in the assay tray of the instrument. The experimental parameters are entered into the computer. These included sample weight, molecular weight, assay type (Partition Log P), number of assays (three), and pKa value of the parent drug from the previous experiment. The run was started. There are three measurements for each run that are averaged to obtain the final results from the data points collected in the calculation software. All runs were denoted as “good” by the green check mark next to the assay number.

in vitro = in vitro ADME; settings: human; for Papp A→B at 2 hours, 10 μM / Papp B→A at 2 hours, 10 μM: pH 7.4; for Papp A→B at 2 hours, 10 μM: read-out: Average Papp, A→B; for Papp B→A at 2 hours, 10 μM: read-out: Average Papp, B→A; for efflux ratio at 2 hours, 10 μM: read-out: Efflux Ratio (B→A/A→B)
Procedure: Each determination was performed in duplicate.
Vr is the volume of the receiver compartment in cm^3.
Vd is the volume of the donor compartment in cm^3.
A is the area of the cell monolayer (1.13 cm^2 for 12-well Transwell®).
CN is the nominal dosing concentration of the dosing solution in μM.
CA is the average of the nominal dosing concentration and the measured 120 minute donor concentration in μM.
Cr^final is the receiver concentration in μM at the end of the incubation period.
Cd^final is the concentration of the donor in μM at the end of the incubation period.

[2] = Toxicity XTT in CEM-SS cells (cytoprotection assay); type: cell-based; settings: human, CEM-SS cells, XTT; read-out: CEM-SS TC50
How it was run: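 CEM-SS cells in exponential growth (>95% viable) were plated with compound alone, as eleven half-log dilutions in triplicate, at 37 °C and 5% CO2. Viability was measured by XTT/PMS metabolism over 4 h, read at 450/650 nm. Toxicity was derived by four-parameter curve fitting.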

[3] = Caco-2, pH 7.4, Test 2, 10 μM, read-out: Recovery (%) A→B
[4] = Caco-2, pH 7.4, Test 2, 10 μM, read-out: Recovery (%) B→A
[5] = Caco-2, pH 7.4, Test 1, 10 μM, read-out: Recovery (%) A→B
[6] = Caco-2, pH 7.4, Test 1, 10 μM, read-out: Recovery (%) B→A

Compound	IC50 (Wild Type RT; read-out: Wild Type RT IC50) [nM]	Log P [1]	Papp A→B at 2 hours, 10 μM (in vitro; Caco-2, pH 7.4, Test 2, 10 μM) [×10⁻⁶ cm/s]	Papp B→A at 2 hours, 10 μM (in vitro; Caco-2, pH 7.4, Test 2, 10 μM) [×10⁻⁶ cm/s]	recovery at 2 h, 10 μM (in vitro; [3]) [%]	recovery at 2 h, 10 μM (in vitro; [4]) [%]	efflux ratio at 2 hours, 10 μM (in vitro; Caco-2, pH 7.4, Test 2)	CC50 [2] [µM]	IC50 (Wild Type RT; Wild Type RT IC50) [nM]	Papp A→B at 2 hours, 10 μM (in vitro; Caco-2, pH 7.4, Test 1, 10 μM) [×10⁻⁶ cm/s]	Papp B→A at 2 hours, 10 μM (in vitro; Caco-2, pH 7.4, Test 1, 10 μM) [×10⁻⁶ cm/s]	recovery at 2 h, 10 μM (in vitro; [5]) [%]	recovery at 2 h, 10 μM (in vitro; [6]) [%]	efflux ratio at 2 hours, 10 μM (in vitro; Caco-2, pH 7.4, Test 1)	logP [1]
5-O-mPEG9-Delavirdine [mPEG9-O-Delavirdine]	560	2.328	–	–	–	–	–	–	–	–	–	–	–	–	–
COCCNc1ccc2[nH]c(C(=O)N3CCN(c4ncccc4NC(C)C)CC3)cc2c1 [5-mPEG1-NH-Delavirdine, 5-mPEG-NH-Delavirdine]	–	–	50.2	39.4	91	92	0.8	50.9	250	–	–	–	–	–	–
COCCOCCNc1ccc2[nH]c(C(=O)N3CCN(c4ncccc4NC(C)C)CC3)cc2c1 [5-mPEG2-NH-Delavirdine]	–	–	46.2	41.1	88	88	0.9	55.5	580	–	–	–	–	–	–
COCCOCCOCCOc1ccc2[nH]c(C(=O)N3CCN(c4ncccc4NC(C)C)CC3)cc2c1 [mPEG3-O-Delavirdine, 5-O-mPEG3-Delavirdine]	–	–	41.4	29.1	95	101	0.7	26.9	50	38.4	33.9	66	61	0.9	1.98
COCCOCCOCCOCCOc1ccc2[nH]c(C(=O)N3CCN(c4ncccc4NC(C)C)CC3)cc2c1 [mPEG4-O-Delavirdine, 5-O-mPEG4-Delavirdine]	–	–	–	–	–	–	–	34	280	39.3	34.8	74	65	0.9	2.22
COCCOCCOCCOCCOCCOc1ccc2[nH]c(C(=O)N3CCN(c4ncccc4NC(C)C)CC3)cc2c1 [mPEG5-O-Delavirdine, 5-O-mPEG5-Delavirdine]	–	–	33.3	38.9	97	95	1.2	14.4	130	29.9	39.1	71	65	1.3	–
COCCOCCOCCOCCOCCOCCOc1ccc2[nH]c(C(=O)N3CCN(c4ncccc4NC(C)C)CC3)cc2c1 [mPEG6-O-Delavirdine, 5-O-mPEG6-Delavirdine]	–	–	–	–	–	–	–	22.5	290	16.1	34.1	67	72	2.1	2.65
COCCOCCOCCOCCOCCOCCOCCOc1ccc2[nH]c(C(=O)N3CCN(c4ncccc4NC(C)C)CC3)cc2c1 [mPEG7-O-Delavirdine, 5-O-mPEG7-Delavirdine]	–	–	23.1	39.3	94	95	1.7	35.5	700	14.2	36.6	74	69	2.6	2.73
COCCOCCOCCOCCOCCOCCOCCOCCOc1ccc2[nH]c(C(=O)N3CCN(c4ncccc4NC(C)C)CC3)cc2c1 [mPEG8-O-Delavirdine, 5-O-mPEG8-Delavirdine]	–	–	–	–	–	–	–	52.5	490	4.98	43.6	80	82	8.8	2.58
